How the values were obtained:
PI3K in KB cells = experiment: Western blot, PI3K; type: cell-based, human; conditions: 0.40, 0.80, 1.60 μM, 24 h
Description: Based on the results of network pharmacology, the key proteins related to PI3K/AKT pathway were detected by Western blotting to explore the antitumor mechanism of compound 6e. […] Such an inconsistency might be due to a compensatory increase in PI3K level after the reduction of AKT phosphorylation level. Additionally, the active-caspase 3 protein, anti-apoptosis protein Bcl-2 and pro-apoptosis protein Bax were further analyzed. Caspase-3 normally exists in the cytoplasm as zymogen. During the early stage of apoptosis, caspase-3 (32 KD) is cleaved to the active 17-kD caspase-3 fragment, which is responsible for morphological and biochemical changes in apoptosis. Bcl-2 and Bax are the […] located on the mitochondrial membrane and capable of controlling the MMP (ΔΨm) and the activation of caspase cascade.
A total of 4 × 10^5 KB cells were seeded into 6-well and grown for overnight. Then the cells adherent to the wall were treated with compound 6e in different concentrations (0, 0.40, 0.80, 1.60 μM) for 24 h. After that, cells were collected, SDS lysate, 100X protease inhibitor and 50X phosphorylation inhibitor were added in a certain proportion to lyse the cells. The protein content was determined by BCA reagent (Beyotime, China) according to the standard curve. […]

[1] = tested on: HUVEC (human umbilical vein endothelial cell); experiment: MTT antiproliferative assay, HUVEC normal cells; type: cell-based; conditions: 72 h
Description: (§1) All the synthesized compounds were screened for in vitro antiproliferative activity against four human cancer cell lines A549 (human lung cancer cell line), KB (human oral epidermoid carcinoma cell line), Hela (human cervical carcinoma cell line), MCF-7 (human breast cancer cell line) and two human normal cell lines HUVEC (human umbilical vein endothelial cell) and LO2 (human normal hepatocytes) through the 3-(4,5-dimethyl-2-thiazolyl)-2,5-diphenyl-2-H-tetrazolium bromide (MTT) assay.
(§2) Non-small-cell lung cancer (A549), oral epidermoid carcinoma (KB), cervical cancer (Hela) and breast cancer (MCF-7) cells were purchased from the American Type Culture Collection (ATCC, America). Human umbilical vein endothelial cell (HUVEC) and human normal hepatocytes (LO2) cells were provided by Guangzhou Medical University (Guangzhou, China). A549 and KB cells were cultured in RMPI-1640 medium (Gibco, America). Hela, MCF-7 and LO2 cells were cultured in DMEM medium (Gibco, America). HUVEC cells were cultured in Ham’s F-12K medium (Gibco, America). All the mediums were supplemented with 10% fetal bovine serum (FBS) (BI, State of Israel), 100 U/mL penicillin and 100 μg/mL streptomycin (Gibco, America), and all the cells were incubated in a sterile incubator at 37°C in an environment of 5% CO2. The tested compounds were dissolved in dimethyl sulfoxide (DMSO) at a concentration of 10 mM, and then diluted into different concentration of solutions by culture medium. The final concentration of DMSO was <0.01% (v/v) in all drug treatment groups to avoid the toxicity in the biological system. Untreated cells were used as a blank control and 5-fluorouracil treated cells were used as a positive control.
(§3) The incubated tumor cells were planted into 96-well plates (4×10^3 cells/well). After 24 h, the cells were adherent to the wall and treated with the compound 6e in different concentrations (0.78, 1.56, 3.12, 6.25, 12.50, 25.00, and 50.00 μM) for 72 h. Afterwards, the medium was supplemented with 10 µL MTT solution. After 4 h, the culture medium was removed and 100 µL DMSO was added. The absorbance was determined at the wavelength of 540 nm and 655 nm using a microplate reader (BioTek Epoch, America). The results were collected from three independent experiments. The IC50 was then calculated by using GraphPad Prism Software (version 7.0) and non-linear regression (curve fit).

KB cells [2] = experiment: Annexin V-FITC/PI dual staining apoptosis assay (flow cytometry); type: cell-based, human
Description: To investigate whether compound 6e could induce cell apoptosis, KB cells were treated with compound 6e in different concentrations for 48 h and the Annexin V-FITC/PI dual staining assay was carried out flow cytometry.
KB cells (5×10^5 cells/well) were seeded into six-well plates. […] Afterwards, cells were collected, washed twice with cold PBS. Then the treated cells were resuspended with 400 μL of 1X Annexin V binding buffer and mixed with 5 μL FITC and 5 μL PI (Annexin V-FITC Apoptosis Analysis Kit, Tianjing), and incubated at room temperature in the dark for 5 min. After the incubation, the samples were immediately analyzed by a Beckman Flow Cytometer.

KB cells [3] = experiment: Scratch wound healing assay; type: cell-based, human; conditions: different concentrations (0.5 IC50, IC50, 2 IC50), after 24 h
Description: (§4) Wound healing assay and transwell assay were performed to investigate the effect of compound 6e on the migratory capability of KB cells.
In vitro wound-healing assay, KB cells (5 × 10^5 cells/well) were seeded into 6-well plates and incubated at 37 °C in humidified atmosphere with 5% CO2 for 12 h. As the cells were adherent to the wall and the degree of fusion reached more than 90%, cell layers were gently scratched with a 200 μL pipette tip. […] Images of cells were photographed with the inverted fluorescence microscope (Leica DMi8, Germany) at 0 h and 24 h. The areas that were not covered by cells in the scratch wound were quantified by using ImageJ. Then the values obtained in each group were expressed by the percentage of wound closure of cells in the control group. The experiments were performed in triplicate.

[4] = tested on: Hela (human cervical carcinoma cell line); experiment: MTT antiproliferative assay, Hela; type: cell-based; conditions: 72 h
Description: as §1, §2, §3

[5] = tested on: A549 (human lung cancer cell line); experiment: MTT antiproliferative assay, A549; type: cell-based; conditions: Homo sapiens, A549; MTT, 72 h
Description: as §1, §2, §3

KB cells [6] = experiment: Transwell migration assay; type: cell-based, human; conditions: 2 IC50, 48 h
Description: as §4
Initially, KB cells (5×10^4 cells/well) were suspended in 200 μL of the FBS-free medium. Each upper chamber contained the vehicle and various concentrations of compound 6e (0.5 IC50, IC50, 2 IC50). Each lower chamber was filled with 600 μL of medium containing 10% FBS. After incubation at 37°C for 48 h, the cells upon the transwell membrane were removed with a cotton tip. The cells trapped on the bottom side of the membrane were fixed with methanol for 1 h and stained with crystal violet solution for 2 h. Subsequently, the chambers thoroughly washed with PBS. The migrated cells were then imaged with the inverted fluorescence microscope (Leica DMi8, Germany) and counted with ImageJ software for three independent fields randomly.

IC50 [4]: 1.82 ± 0.22 µM | IC50 [5]: 7.4 ± 0.2 µM
SMILES: O=CC=C(Cl)c1cc2ccc(OCc3ccccc3)cc2oc1=O [Compound 6e, 3-(7-(Benzyloxy)-2-oxo-2H-chromen-3-yl)-3-chloroacrylaldehyde]
relative PI3K level among the control and treatment groups (PI3K in KB cells): not significantly different | IC50 [1]: 25.26 ± 0.2 µM | apoptotic rate in the early stage (Q1-LR) (KB cells [2]; 0.5 IC50, 48 h): 6.99% | late apoptotic rate (Q1-UR) (KB cells [2]; 0.5 IC50, 48 h): 5.55% | total apoptosis rate (KB cells [2]; 0.5 IC50, 48 h): 12.54% | apoptotic rate in the early stage (Q1-LR) (KB cells [2]; 2 IC50, 48 h): 13.11% | late apoptotic rate (Q1-UR) (KB cells [2]; 2 IC50, 48 h): 7.22% | total apoptosis rate (KB cells [2]; 2 IC50, 48 h): 20.33% | apoptotic rate in the early stage (Q1-LR) (KB cells [2]; IC50, 48 h): 6.69% | late apoptotic rate (Q1-UR) (KB cells [2]; IC50, 48 h): 7.30% | total apoptosis rate (KB cells [2]; IC50, 48 h): 13.99% | scratched gaps of KB cells (KB cells [3]): wider than that of the control group and 5-FU group | number of migration cells reduced compared with the control group (KB cells [6]): approximately 93%

From paper PMC10076643, “Design, synthesis and anticancer activity studies of 3-(coumarin-3-yl)-acrolein derivatives: Evidenced by integrating network pharmacology and vitro assay” (Frontiers in Pharmacology, 2023)
